Tests used:
[1] = test system: pulmonary artery smooth muscle cells (PASMC); experiment: PASMC cellular metabolism (alamarBlue assay); format: cell-based, lamb; conditions: WT-PKG-1α transfected PASMC; SIN-1 500 μM, 48 h
Experimental: This was determined via the alamarBlue assay (AbD Serotec, Oxford, UK). The assay is based on the reducing ability of metabolically active cells to convert the active reagent, resazurin, into a fluorescent and colorimetric indicator, resorufin. When added to cell cultures, the oxidized, resazurin enters the cytosol and is converted to the reduced, resorufin in the mitochondria by accepting electrons from NADH, NADPH, FADH2, FMNH2, as well as from the cytochromes. The non-toxic and cell permeable nature of alamarBlue permits the long-term exposure of cells. PASMC were grown on a 10 cm dish to 75% confluence, transfected with WT-PKG-1α or Y247F-PKG-1α cDNA, and incubated at 37° C. for 20 h. The cells were trypsinized and seeded onto a 24-well plate at a density of 20,000 cells per well and grown for an additional 4 h in serum and phenol free DMEM growth medium containing 1% FBS and antibiotics. The cells were then treated with or without SIN-1 (500 μM, 48 h) in the presence of 10% well volume of alamarBlue dye. The color change of the dye was determined at an excitation wavelength of 560 nm and an emission wavelength of 590 nm in a Fluoroskan Ascent plate reader. […] Cellular metabolism was expressed as follows: […]

[2] = test system: pulmonary artery smooth muscle cells (PASMC); experiment: PASMC phenotype markers MYH, Calponin-1, Vimentin (Western blot); format: cell-based, lamb; conditions: WT-PKG-1α transfected PASMC; SIN-1 500 μM, 48 h
Experimental: To assess the effect of nitration on pulmonary arterial smooth muscle cell (PASMC) phenotype, PASMC were transiently transfected with expression plasmids containing WT-PKG-1α, Y247F-PKG-1α, or PDEST40 (as a control) for 20 h. Cells were then exposed or not to SIN-1 (500 μM, 48 h) and the effect on synthetic and contractile markers determined. The levels of myosin heavy chain (MYH, FIG. 3A), Calponin-1 (FIG. 3B), and Vimentin (FIG. 3C) were determined. The blots were then stripped and re-probed for β-actin to normalize for protein loading. PASMC were also subjected to immunohistochemistry using antibodies to SM22-α (5 μg/ml) and PCNA (1 μg/ml). Relevant secondary antibodies linked to Alexa Fluor 488 (green) were then applied. DAPI was also used to stain (blue) the cell nuclei.

3-morpholinosydnonimine N-ethylcarbamide [SIN-1]
metabolism [1]: stimulated
expression of contractile marker Calponin-1 [2]: decreased
expression of contractile marker MYH [2]: decreased
expression of proliferative marker Vimentin [2]: increased

From patent US9551711B2, “Compositions and methods for detecting nitration of PKG-1α and methods of use thereof” (Augusta University Research Institute, Inc., priority 2013, dated 2017)
